Reference: patent US20150159169A1, “Plants Tolerant to HPPD Inhibitor Herbicides” (Bayer CropScience AG, priority 2009, published 2015)
Like-named read-outs stand apart in the source and are kept apart here.

Columns and labels:
[1] = target: Kordia algicida HPPD "SEQ ID No. 5" (Kordia algicida, UniProt A9DQF2); assay: biochemical; settings: for inhibition at 5 µM: read-out: percentage of inhibition compared to the activity in absence of the inhibitor
[2] = system: tobacco leaf disks containing SEQ ID No. 11 (Arabidopsis HPPD); assay: Leaf disk regeneration on HPPD inhibitor media; type: cell-based, Nicotiana tabacum; settings: 6 weeks
Protocol: (§1) At the end of the experiments the level of regeneration was evaluated as followed:
(§2) “−” means that the leaf disks looked the same as leaf disk from wild type tobacco plants on media supplemented with the inhibitor mentioned above.
(§3) “++++” means that the leaf disks looked like the leaf disks from the wild type tobacco plants on media without inhibitor.
(§4) “+”, “++”, and “+++” indicate regenerated leaf disks were heavily (+), medium (++) and less (+++) affected by the presence of the inhibitors.

[3] = system: tobacco leaf disks containing SEQ ID No. 7 (Kordia algicida HPPD); assay: Leaf disk regeneration on HPPD inhibitor media; type: cell-based, Nicotiana tabacum; settings: 6 weeks
Protocol: as §1, §2, §3, §4

wild type tobacco plants = assay: Glasshouse response to bicyclopyrone, injury classes; type: in vivo, Nicotiana tabacum; settings: 100 g AI/ha, 7 DAT; WT
Text: (§5) Seeds of wild type tobacco plants and T1 tobacco plants carrying the gene from Kordia algicida FMP27e coding for HPPD were sown on MS media (Murashige and Skoog 1964) supplemented with […] kanamycin. After 4 weeks, rooted green plantlets were transferred to soil and grown for 3 weeks in the glasshouse as described above then sprayed with a mixture containing bicyclopyrone (100 g AI/ha), ammonium sulfate and methyl ester raps oil. The plants were classified in two categories based on the phenotype developed in response to the herbicide seven days after the treatment. […] In this case, only plants containing at least one T-DNA were exposed to the herbicidal treatment.

[4] = system: T1 tobacco plants carrying FMP27e; assay: as above; type: in vivo, Nicotiana tabacum; settings: 100 g AI/ha, 7 DAT
Text: as §5

[5] = target: Kordia algicida HPPD "SEQ ID No. 5" (FMP27e) (Kordia algicida, UniProt A9DQF2); assay: HPLC assay of HPPD in vitro kinetic properties; type: biochemical
Protocol: (§6) Km, Vmax, and kcat values for different HPPD enzyme preparations and Ki, K1=Kon, and K−1=Koff for different HPPD inhibitors were determined using a HPLC assay for measurements of HPPD activity. […] All assays were started by the addition of HPPD enzyme to the assay mixture and stopped at a series of times between 0 and 240 s by addition of 200 μl of the reaction mixture to reaction assay tubes containing 20 μl 10% perchloric acid. Precipitated protein was pelleted by a 5 minute centrifugation at 10,000 g.
(§7) For Km and Vmax value determinations the initial rates of the HPPD reaction at different substrate concentrations were determined from plots of HGA formed versus time and fitted to the Michaelis-Menten equation for unireactant enzymes using the ID Business Solutions Ltd. (idbs.com) XLfit software suite.

[6] = system: tobacco plants containing FMP27t-h, PAT and 2mEPSPS (pFCO116); assay: Glasshouse response of three-tolerance-gene tobacco to herbicides, injury classes; type: in vivo, Nicotiana tobacum; settings: 9 DAT
Protocol: A binary vector for tobacco transformation is, for example, constructed with the CaMV35 promoter driving the expression of the gene FMP27t-h (SEQ ID No. 15), with a codon usage optimized for the expression in dicotyledoneous plants and at its 5′extremity was added a sequence coding for an OTP, and further upstream a sequence TEV (Tobacco etch virus) to improve the stability of the mRNA in plants followed by the CaMV35S terminator. The nucleotide sequence of the gene FMP27t-h is given in SEQ ID No. 15. Additionally, the transformation vector also contains a PAT gene cassette in which the gene is driven by a CaVM35S promoter and followed by a CaMV35S terminator for glufosinate based selection during the transformation process and a 2mEPSPS gene cassette in which the gene is driven by an histone promoter from Arabidopsis to confer tolerance to the herbicide glyphosate to the transformed plants (see FIG. 3 H). The binary vector was called pFCO116. The above vector was used to transform leaf disc obtained from Nicotiana tobacum plants, according to Example 3.
Transgenic tobacco plants were transferred to the greenhouse and treated with glyphosate at a rate of 1121 g AI/ha. Seeds were produced from such tolerant tobacco plants and harvested. These seeds were put on soil to germinate in the glasshouse. Three to four weeks later, 50 plantlets per event were transferred to single pots. Two weeks later, plants of a size 4-6 cm were sprayed either with
[…] […] Non-transgenic tobacco plants were completely killed by treatment using one or more of the above herbicides.

[7] = target: T1, Arabidopsis thaliana HPPD "SEQ ID No. 10" (Arabidopsis thaliana, UniProt P93836); assay: HPLC assay of HPPD in vitro kinetic properties; type: biochemical; settings: substrate HPP varied 10-400 μM; enzyme SEQ ID No. 10
T1 construct: made in house; host or cells: E. coli K-12 BL21 (pQE30-AtHPPD)
T1 sequence (P93836 with tags, fused parts or gaps): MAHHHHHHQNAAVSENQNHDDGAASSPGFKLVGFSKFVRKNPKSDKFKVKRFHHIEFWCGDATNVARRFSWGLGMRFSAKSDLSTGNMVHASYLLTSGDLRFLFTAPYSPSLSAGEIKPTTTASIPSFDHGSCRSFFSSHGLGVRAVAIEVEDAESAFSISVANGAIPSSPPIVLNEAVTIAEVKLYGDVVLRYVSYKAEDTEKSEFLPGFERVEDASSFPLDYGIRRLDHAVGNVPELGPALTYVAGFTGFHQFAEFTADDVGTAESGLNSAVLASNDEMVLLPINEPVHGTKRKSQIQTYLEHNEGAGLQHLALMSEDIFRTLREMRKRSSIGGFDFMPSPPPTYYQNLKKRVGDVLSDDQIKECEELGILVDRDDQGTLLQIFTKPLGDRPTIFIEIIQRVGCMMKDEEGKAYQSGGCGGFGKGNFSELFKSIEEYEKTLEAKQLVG
Protocol: as §6, §7

[8] = target: T1, Arabidopsis thaliana HPPD "SEQ ID No. 10"; assay: HPPD activity in presence of HPPD inhibitors (pI50, % inhibition); type: biochemical
[9] = 5.0 × 10^−6M inhibitor, enzyme SEQ ID No. 5
[10] = substrate HPP varied 10-400 μM, enzyme SEQ ID No. 5

Kordia algicida HPPD "SEQ ID No. 5" (FMP27e), sequence (A9DQF2 entry or part of it): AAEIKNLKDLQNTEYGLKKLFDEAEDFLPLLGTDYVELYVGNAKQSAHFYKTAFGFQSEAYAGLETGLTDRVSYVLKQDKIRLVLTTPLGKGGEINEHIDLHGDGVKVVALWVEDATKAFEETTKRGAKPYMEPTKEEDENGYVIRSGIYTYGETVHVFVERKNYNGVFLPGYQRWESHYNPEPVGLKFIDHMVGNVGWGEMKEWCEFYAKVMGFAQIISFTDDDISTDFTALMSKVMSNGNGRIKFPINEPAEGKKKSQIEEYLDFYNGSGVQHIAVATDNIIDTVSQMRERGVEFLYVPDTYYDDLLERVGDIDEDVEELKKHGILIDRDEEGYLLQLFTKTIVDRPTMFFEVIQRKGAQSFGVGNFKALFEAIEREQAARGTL
Kordia algicida HPPD "SEQ ID No. 5", sequence (A9DQF2 entry or part of it): as above

Q: For Cc1ccc(C(=O)COc2c(C(=O)c3ccc(Cl)c(C)c3Cl)c(C)nn2C)cc1 [Benzofenap], which inhibition at 5 µM [1, 9] is on record?
A: 97%

Q: What about the IC50 ([1]; read-out: pI50 (converted)) of the same molecule?
A: < 2.51 µM

Q: COCCOCc1nc(C(F)(F)F)ccc1C(=O)C1=C(O)C2CCC(C2)C1=O (centres unmarked) [Bicyclopyrone, 4-hydroxy-3-[[2-[(2-methoxyethoxy)methyl]-6-(trifluoromethyl)-3-pyridinyl]carbonyl]bicyclo[3.2.1]oct-3-en-2-one] was tested. Which “level of leaf disk regeneration” value ([2]; inhibitor 10^−6 M) did it give?
A: −

Q: And the “level of leaf disk regeneration” value ([3]; inhibitor 10^−6 M)?
A: ++

Q: And the “% of tolerant plant” value (wild type tobacco plants)?
A: 0%

Q: And the “Class I, number of plants (injury: 0-30%)” value (from here on “Class I … (injury: 0-30%)”) (wild type tobacco plants)?
A: 0

Q: What about the “Class II, number of plants (injury: 31-100%)” value (“Class II … (injury: 31-100%)” for short) (wild type tobacco plants) of the same molecule?
A: 12

Q: And the “% of tolerant plant” value ([4]; line 121)?
A: 39%

Q: What about the “Class I … (injury: 0-30%)” value ([4]; line 121) of the same molecule?
A: 90

Q: And the “Class II … (injury: 31-100%)” value ([4]; line 121)?
A: 138

Q: What about the “% of tolerant plant” value ([4]; line 129) of the same molecule?
A: 30%

Q: And the “Class I … (injury: 0-30%)” value ([4]; line 129)?
A: 47

Q: And the “Class II … (injury: 31-100%)” value ([4]; line 129)?
A: 111

Q: What about the “% of tolerant plant” value ([4]; line 218) of the same molecule?
A: 64%

Q: What about the “Class I … (injury: 0-30%)” value ([4]; line 218) of the same molecule?
A: 100

Q: And the “Class II … (injury: 31-100%)” value ([4]; line 218)?
A: 56

Q: What about the IC50 ([1]; read-out: pI50 (converted)) of the same molecule?
A: 10 µM

Q: And the inhibition at 5 µM [1]?
A: 38%

Q: CS(=O)(=O)c1cc(C(F)(F)F)ccc1C(=O)C(C#N)C(=O)C1CC1 (centres unmarked) [Diketonitrile, 2-cyano-3-cyclopropyl-1-(2-methylsulphonyl-4-trifluoromethylphenyl)-propane-1,3-dione] was tested. Which “level of leaf disk regeneration” value ([2]; diketonitrile 5.10^−6 M) did it give?
A: −

Q: And the “level of leaf disk regeneration” value ([3]; diketonitrile 5.10^−6 M)?
A: +

Q: And the Ki ([5]; read-out: Ki)?
A: 15 µM

Q: What about the inhibition at 5 µM [1, 9] of the same molecule?
A: 80%

Q: What about the IC50 ([1]; read-out: pI50 (converted)) of the same molecule?
A: 2 µM

Q: CP(=O)(O)CCC(N)C(=O)O (centres unmarked) [Glufosinate-ammonium] was tested. Which “Class I, number of plants (no injuries)” value ([6]; 1000 g AI/ha, line 639) did it give?
A: 10

Q: What about the “Class II, number of plants (injury: 10-40%)” value (“Class II … (injury: 10-40%)” below) ([6]; 1000 g AI/ha, line 639) of the same molecule?
A: 0

Q: What about the “Class III, number of plants (injury: 41-100%)” value (“Class III … (injury: 41-100%)” below) ([6]; 1000 g AI/ha, line 639) of the same molecule?
A: 0

Q: And the “Class I, number of plants (no injuries)” value ([6]; 1000 g AI/ha, line 714)?
A: 10

Q: What about the “Class II … (injury: 10-40%)” value ([6]; 1000 g AI/ha, line 714) of the same molecule?
A: 0

Q: And the “Class III … (injury: 41-100%)” value ([6]; 1000 g AI/ha, line 714)?
A: 0

Q: What about the “Class I, number of plants (no injuries)” value ([6]; 1000 g AI/ha, line 717) of the same molecule?
A: 10

Q: And the “Class II … (injury: 10-40%)” value ([6]; 1000 g AI/ha, line 717)?
A: 0

Q: And the “Class III … (injury: 41-100%)” value ([6]; 1000 g AI/ha, line 717)?
A: 0

Q: Which “Class I, number of plants (no injuries)” value ([6]; 1121 g AI/ha, line 639) does the source give for O=C(O)CNCP(=O)(O)O [Glyphosate] here?
A: 9

Q: What about the “Class II … (injury: 10-40%)” value ([6]; 1121 g AI/ha, line 639) of the same molecule?
A: 0

Q: And the “Class III … (injury: 41-100%)” value ([6]; 1121 g AI/ha, line 639)?
A: 1

Q: What about the “Class I, number of plants (no injuries)” value ([6]; 1121 g AI/ha, line 714) of the same molecule?
A: 10

Q: What about the “Class II … (injury: 10-40%)” value ([6]; 1121 g AI/ha, line 714) of the same molecule?
A: 0

Q: What about the “Class III … (injury: 41-100%)” value ([6]; 1121 g AI/ha, line 714) of the same molecule?
A: 0

Q: What about the “Class I, number of plants (no injuries)” value ([6]; 1121 g AI/ha, line 717) of the same molecule?
A: 10

Q: What about the “Class II … (injury: 10-40%)” value ([6]; 1121 g AI/ha, line 717) of the same molecule?
A: 0

Q: And the “Class III … (injury: 41-100%)” value ([6]; 1121 g AI/ha, line 717)?
A: 0

Q: For O=C(O)C(=O)Cc1ccc(O)cc1 [HPP, para-hydroxyphenylpyruvate], which Km [7] is on record?
A: 6.3 µM

Q: What about the Vmax [7] of the same molecule?
A: 1.2 µM

Q: And the Km [5, 10]?
A: 292 µM

Q: And the Vmax [5, 10]?
A: 13.6 µM

Q: What does the source list for CS(=O)(=O)c1ccc(C(=O)C2C(=O)CCCC2=O)c([N+](=O)[O-])c1 [Mesotrione, 2-[4-(methylsulfonyl)-2-nitrobenzoyl]-1,3-cyclohexanedione]?
A: level of leaf disk regeneration ([2]; inhibitor 10^−6 M): −; level of leaf disk regeneration ([3]; inhibitor 10^−6 M): +

Q: How did the IC50 [1] turn out when Cc1nn(C)c(O)c1C(=O)c1ccc(C(F)(F)F)cc1S(C)(=O)=O [Pyrasulfotole] was run?
A: 12.6 µM

Q: And the inhibition at 5 µM [1]?
A: 43%

Q: And the IC50 [8]?
A: 3.98 µM

Q: What about the inhibition at 5 µM ([8]; read-out: percentage of inhibition compared to the activity in absence of the inhibitor) of the same molecule?
A: 69%

Q: Which inhibition at 5 µM [1, 9] does the source give for CS(=O)(=O)c1ccc(C(=O)C2C(=O)CCCC2=O)c(Cl)c1COCC1CCCO1 (centres unmarked) [Tefuryltrione, 2-[2-chloro-4-(methylsulfonyl)-3-[[(tetrahydro-2-furanyl)methoxy]methyl]benzoyl]-1,3-cyclohexanedione] here?
A: 73%

Q: What about the IC50 ([1]; read-out: pI50 (converted)) of the same molecule?
A: 1.58 µM
